Measurements as given in publication doi:10.1101/614586v1 (biorxiv, 2019).

Assays:
human RAD54 [1] = target: T1, human RAD54 (Homo sapiens, UniProt Q92698); assay: biochemical
T1 sequence (Q92698 1-747): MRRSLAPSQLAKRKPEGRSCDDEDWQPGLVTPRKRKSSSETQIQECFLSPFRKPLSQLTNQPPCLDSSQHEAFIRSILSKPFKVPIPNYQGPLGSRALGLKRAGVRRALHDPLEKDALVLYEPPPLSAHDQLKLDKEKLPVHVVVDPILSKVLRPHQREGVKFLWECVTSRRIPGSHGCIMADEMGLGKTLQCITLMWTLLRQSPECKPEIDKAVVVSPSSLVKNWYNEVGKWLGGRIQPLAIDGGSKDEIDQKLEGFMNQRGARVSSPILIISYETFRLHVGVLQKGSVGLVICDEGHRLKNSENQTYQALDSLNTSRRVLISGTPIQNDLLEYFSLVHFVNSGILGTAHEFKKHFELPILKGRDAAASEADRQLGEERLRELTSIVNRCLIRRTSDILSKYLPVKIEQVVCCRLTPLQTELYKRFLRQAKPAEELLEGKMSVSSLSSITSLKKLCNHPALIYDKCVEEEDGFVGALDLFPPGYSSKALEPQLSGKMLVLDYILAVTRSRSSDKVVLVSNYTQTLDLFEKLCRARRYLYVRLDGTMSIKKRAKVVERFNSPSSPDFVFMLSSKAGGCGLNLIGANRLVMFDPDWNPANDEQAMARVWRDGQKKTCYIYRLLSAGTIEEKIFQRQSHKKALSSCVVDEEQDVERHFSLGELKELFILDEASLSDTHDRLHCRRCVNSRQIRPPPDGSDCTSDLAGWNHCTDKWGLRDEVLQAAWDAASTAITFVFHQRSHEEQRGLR

H. sapiens SMARCAL1 = target: T2, H. sapiens SMARCAL1 (Homo sapiens, UniProt Q9NZC9); assay: malachite green phosphate ATPase assay; format: biochemical
T2 sequence (Q9NZC9 2-954): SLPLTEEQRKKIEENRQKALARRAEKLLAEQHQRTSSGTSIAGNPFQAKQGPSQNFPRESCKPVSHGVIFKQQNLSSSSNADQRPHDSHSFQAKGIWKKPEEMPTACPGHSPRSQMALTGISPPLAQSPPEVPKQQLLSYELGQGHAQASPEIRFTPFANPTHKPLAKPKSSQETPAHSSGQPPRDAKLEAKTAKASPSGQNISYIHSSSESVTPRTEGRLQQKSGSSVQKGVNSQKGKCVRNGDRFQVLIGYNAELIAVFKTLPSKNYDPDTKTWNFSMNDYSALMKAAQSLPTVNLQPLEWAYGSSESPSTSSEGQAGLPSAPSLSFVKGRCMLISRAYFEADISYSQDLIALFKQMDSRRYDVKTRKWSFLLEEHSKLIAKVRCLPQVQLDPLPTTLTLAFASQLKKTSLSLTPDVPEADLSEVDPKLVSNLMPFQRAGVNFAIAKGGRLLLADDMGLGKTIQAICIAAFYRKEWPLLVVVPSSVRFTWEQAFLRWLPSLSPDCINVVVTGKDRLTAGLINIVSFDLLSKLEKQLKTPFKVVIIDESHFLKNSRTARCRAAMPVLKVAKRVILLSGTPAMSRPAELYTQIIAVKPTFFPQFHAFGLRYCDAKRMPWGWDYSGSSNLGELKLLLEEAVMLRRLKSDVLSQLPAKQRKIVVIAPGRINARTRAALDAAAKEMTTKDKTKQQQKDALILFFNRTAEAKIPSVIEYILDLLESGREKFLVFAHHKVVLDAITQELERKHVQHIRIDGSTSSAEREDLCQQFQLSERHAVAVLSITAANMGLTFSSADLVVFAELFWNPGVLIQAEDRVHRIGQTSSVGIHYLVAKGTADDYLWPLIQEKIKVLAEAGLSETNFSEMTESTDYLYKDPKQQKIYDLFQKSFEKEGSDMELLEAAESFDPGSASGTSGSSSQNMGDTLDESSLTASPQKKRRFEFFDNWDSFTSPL

human RAD54 [2] = target: T1, human RAD54; assay: malachite green phosphate ATPase assay; format: biochemical
H. sapiens HLTF = target: T3, H. sapiens HLTF (Homo sapiens, UniProt Q14527); assay: malachite green phosphate ATPase assay; format: biochemical
T3 sequence (Q14527 1-1009): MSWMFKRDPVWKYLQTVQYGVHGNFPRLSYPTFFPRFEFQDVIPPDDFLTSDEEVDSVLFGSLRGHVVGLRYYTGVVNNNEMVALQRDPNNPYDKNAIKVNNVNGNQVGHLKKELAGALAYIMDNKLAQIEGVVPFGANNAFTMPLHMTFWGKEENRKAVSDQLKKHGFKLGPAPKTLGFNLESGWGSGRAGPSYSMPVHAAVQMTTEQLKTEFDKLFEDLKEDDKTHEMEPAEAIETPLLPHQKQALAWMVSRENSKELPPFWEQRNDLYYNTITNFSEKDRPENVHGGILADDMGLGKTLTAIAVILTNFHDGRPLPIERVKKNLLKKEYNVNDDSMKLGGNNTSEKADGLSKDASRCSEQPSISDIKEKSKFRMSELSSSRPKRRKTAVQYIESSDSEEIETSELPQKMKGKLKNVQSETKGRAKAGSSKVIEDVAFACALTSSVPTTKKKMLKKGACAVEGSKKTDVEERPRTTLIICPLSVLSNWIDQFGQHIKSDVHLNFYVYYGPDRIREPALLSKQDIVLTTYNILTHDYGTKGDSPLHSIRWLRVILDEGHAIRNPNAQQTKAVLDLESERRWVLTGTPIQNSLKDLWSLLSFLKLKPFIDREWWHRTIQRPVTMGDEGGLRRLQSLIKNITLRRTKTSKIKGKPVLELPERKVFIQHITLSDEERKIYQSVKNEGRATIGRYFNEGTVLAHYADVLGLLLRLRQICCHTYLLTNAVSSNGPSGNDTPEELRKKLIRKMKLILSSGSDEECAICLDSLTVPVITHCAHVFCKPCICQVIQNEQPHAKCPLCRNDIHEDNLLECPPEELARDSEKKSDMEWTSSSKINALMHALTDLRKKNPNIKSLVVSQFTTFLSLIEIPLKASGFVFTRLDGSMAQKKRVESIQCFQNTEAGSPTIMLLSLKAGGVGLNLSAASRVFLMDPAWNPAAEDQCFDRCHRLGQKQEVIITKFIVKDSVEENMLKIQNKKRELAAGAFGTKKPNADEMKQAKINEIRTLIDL

S. cerevisiae Rad54 = target: T4, S. cerevisiae Rad54 (Saccharomyces cerevisiae, UniProt P32863); assay: malachite green phosphate ATPase assay; format: biochemical
T4 sequence (P32863 1-898): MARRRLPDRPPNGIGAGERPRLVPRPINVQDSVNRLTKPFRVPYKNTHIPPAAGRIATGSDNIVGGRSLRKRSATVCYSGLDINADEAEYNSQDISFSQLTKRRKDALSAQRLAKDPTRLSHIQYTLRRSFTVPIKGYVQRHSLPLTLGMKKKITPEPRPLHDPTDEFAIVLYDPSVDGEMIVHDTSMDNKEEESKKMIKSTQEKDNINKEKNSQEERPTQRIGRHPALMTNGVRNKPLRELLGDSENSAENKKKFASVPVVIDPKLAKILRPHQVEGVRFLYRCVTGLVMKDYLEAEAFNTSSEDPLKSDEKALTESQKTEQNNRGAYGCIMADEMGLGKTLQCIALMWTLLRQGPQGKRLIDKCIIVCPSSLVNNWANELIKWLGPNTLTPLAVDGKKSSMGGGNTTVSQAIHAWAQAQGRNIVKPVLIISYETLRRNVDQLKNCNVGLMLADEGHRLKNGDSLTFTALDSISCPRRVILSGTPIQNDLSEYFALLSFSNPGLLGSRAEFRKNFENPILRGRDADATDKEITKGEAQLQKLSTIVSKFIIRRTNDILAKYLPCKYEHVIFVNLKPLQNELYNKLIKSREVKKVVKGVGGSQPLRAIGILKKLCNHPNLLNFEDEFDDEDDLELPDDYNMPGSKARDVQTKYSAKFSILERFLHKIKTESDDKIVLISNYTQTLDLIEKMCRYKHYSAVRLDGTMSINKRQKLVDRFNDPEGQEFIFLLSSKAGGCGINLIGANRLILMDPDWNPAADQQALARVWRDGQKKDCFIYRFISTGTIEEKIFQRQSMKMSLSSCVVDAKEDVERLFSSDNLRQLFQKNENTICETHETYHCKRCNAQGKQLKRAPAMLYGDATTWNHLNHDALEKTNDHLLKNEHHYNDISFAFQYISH

human RAD54 [3] = target: T1, human RAD54; assay: biochemical; conditions: read-out: % inh.
H. sapiens VCP/p97 = H. sapiens VCP/p97 (Homo sapiens, UniProt P55072); assay: malachite green phosphate ATPase assay; format: biochemical
S. cerevisiae Rdh54/Tid1 = target: T5, S. cerevisiae Rdh54/Tid1 (Saccharomyces cerevisiae, UniProt P38086); assay: malachite green phosphate ATPase assay; format: biochemical
T5 sequence (P38086 35-958 limits assumed): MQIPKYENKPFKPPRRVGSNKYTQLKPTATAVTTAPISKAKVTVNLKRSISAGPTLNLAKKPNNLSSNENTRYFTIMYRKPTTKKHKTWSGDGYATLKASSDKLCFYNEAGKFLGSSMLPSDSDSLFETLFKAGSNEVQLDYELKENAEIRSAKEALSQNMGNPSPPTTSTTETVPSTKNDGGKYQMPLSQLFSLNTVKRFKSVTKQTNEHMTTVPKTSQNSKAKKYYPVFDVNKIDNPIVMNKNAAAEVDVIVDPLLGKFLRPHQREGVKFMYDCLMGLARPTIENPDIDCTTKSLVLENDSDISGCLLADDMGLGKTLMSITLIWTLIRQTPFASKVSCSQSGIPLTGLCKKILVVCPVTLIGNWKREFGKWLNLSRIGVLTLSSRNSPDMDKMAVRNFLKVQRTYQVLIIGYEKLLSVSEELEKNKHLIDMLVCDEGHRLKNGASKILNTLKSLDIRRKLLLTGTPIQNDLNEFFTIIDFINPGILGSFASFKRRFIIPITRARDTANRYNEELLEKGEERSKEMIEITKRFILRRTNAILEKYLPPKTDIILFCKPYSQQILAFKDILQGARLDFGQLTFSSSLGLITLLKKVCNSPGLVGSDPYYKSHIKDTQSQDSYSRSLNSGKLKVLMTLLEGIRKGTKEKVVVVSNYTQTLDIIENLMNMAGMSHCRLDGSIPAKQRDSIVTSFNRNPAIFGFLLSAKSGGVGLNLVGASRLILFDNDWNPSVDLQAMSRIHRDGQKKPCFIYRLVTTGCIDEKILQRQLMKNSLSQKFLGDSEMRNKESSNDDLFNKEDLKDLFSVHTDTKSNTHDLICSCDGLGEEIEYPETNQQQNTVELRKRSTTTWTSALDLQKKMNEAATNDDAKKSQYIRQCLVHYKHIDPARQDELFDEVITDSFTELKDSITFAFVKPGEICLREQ

E. coli RecA = target: T6, E. coli RecA (Escherichia coli, UniProt P0A7G6); assay: malachite green phosphate ATPase assay; format: biochemical
T6 sequence (P0A7G6 2-353): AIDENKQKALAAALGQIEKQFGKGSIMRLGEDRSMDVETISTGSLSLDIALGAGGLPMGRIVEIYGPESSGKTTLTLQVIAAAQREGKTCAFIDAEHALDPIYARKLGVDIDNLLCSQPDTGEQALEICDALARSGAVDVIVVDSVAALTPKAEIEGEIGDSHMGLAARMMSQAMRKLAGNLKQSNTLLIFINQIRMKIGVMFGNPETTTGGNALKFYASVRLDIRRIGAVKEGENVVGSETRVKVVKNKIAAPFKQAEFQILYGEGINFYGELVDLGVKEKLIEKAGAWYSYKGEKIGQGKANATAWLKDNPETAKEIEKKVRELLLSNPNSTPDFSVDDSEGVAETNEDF

human RAD54 [4] = target: T1, human RAD54; assay: biochemical; remark: listed apart in the source

H. sapiens VCP/p97, sequence (P55072 2-806): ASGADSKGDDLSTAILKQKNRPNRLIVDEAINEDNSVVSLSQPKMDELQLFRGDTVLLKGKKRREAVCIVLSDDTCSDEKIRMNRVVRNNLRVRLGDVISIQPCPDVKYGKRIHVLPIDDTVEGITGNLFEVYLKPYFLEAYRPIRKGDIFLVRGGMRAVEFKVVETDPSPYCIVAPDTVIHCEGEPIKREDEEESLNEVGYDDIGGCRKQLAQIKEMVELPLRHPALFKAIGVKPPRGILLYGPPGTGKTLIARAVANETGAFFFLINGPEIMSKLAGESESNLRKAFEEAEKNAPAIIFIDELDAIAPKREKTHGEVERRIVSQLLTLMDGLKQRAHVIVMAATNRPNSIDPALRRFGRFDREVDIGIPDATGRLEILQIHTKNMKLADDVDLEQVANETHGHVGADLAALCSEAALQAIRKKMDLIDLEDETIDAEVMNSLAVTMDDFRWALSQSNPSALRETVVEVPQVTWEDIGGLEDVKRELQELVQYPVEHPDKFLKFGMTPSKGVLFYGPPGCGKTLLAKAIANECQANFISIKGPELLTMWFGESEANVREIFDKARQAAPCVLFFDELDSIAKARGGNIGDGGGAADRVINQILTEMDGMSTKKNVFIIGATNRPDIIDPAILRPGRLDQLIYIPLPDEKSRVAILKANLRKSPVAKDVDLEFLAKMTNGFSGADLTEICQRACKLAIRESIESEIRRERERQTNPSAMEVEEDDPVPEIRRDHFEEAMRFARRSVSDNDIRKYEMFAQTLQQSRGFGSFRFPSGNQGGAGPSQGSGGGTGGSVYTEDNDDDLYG

Row | Structure (SMILES) | IC50 (human RAD54 [2]) [µM] | inhibition at 10 µM (human RAD54 [3]) [%] | other results
1 | Cc1ccc(C)n1CCN1CCNCC1 [54h^o-1] |  |  | IC50 (human RAD54 [1]): > 60 µM
2 | CN(C)CCCNCC(O)Cn1c2ccc(Cl)cc2c2cc(Cl)ccc21 (stereo not drawn) [54i-1] | 5 ± 1.05 | 68 | IC50 (H. sapiens SMARCAL1): 5.7 ± 0.6 µM; IC50 (H. sapiens HLTF): 377 ± 195 µM; IC50 (S. cerevisiae Rad54): 3.8 ± 1.8 µM; IC50 (H. sapiens VCP/p97): > 500 µM; IC50 (S. cerevisiae Rdh54/Tid1): 43.2 ± 2.9 µM; IC50 (E. coli RecA): 0.79 ± 0.05 µM
3 | CC1(C)Cc2c(ccc3ccccc23)C(CCN2CCCCC2)=N1 [54i-2] | 16 ± 3 | 18 | 
4 | Cc1nc2c(=O)n(C)c(=O)nc-2n(C)n1 [54i^P-1a] |  | 44 | 
5 | CCCc1nc2c(=O)n(C)c(=O)nc-2n(C)n1 [54i^P-1b] |  | 61 | 
6 | CCn1nc(-c2ccccc2C)nc2c(=O)n(C)c(=O)nc1-2 [54i^P-1c] |  | 70 | 
7 | CCn1nc(-c2ccc(C)cc2)nc2c(=O)n(C)c(=O)nc1-2 [54i^P-1d] |  | 49 | 
8 | CCn1nc(-c2ccc(C(F)F)cc2)nc2c(=O)n(C)c(=O)nc1-2 [54i^P-1e] |  | 79 | 
9 | Cc1ccc(C)n1-c1ccc(C(=O)O)c(O)c1 [54i^P-2a] |  | 50 | 
10 | Cc1ccc(C)n1-c1ccc(SCC(=O)O)cc1 [54i^P-2b] |  | 70 | 
11 | CS(=O)(=O)C1=NSC2=NC(=O)C(=Cc3ccc(SCc4ccc(Cl)cc4)o3)C(=N)N21 [54i^P-3] |  | 27 | 
12 | NC=O [54i^P-4] |  | 36 | 
13 | CC1(C)c2ccccc2N(CCc2nnn[nH]2)c2ccccc21 [tricyc-1] | > 130 |  | IC50 (human RAD54 [4]): 129 ± 19.7 µM
14 | CC1(C)c2cc(Cl)ccc2N(CCc2nnn[nH]2)c2ccc(Cl)cc21 [tricyc-2] | 3.07 ± 0.7 |  | 
15 | CC1(C)c2cc(Br)ccc2N(CCc2nnn[nH]2)c2ccc(Br)cc21 [tricyc-3] | 7.65 ± 1.06 |  | 
